Laboratory results published in patent US9567302B2, “Carbamate compounds and of making and using same” (Abide Therapeutics, Inc., priority 2012, dated 2017).

Key:
Assay type in all cases: biochemical
Parameters in all cases: from tissue; host or cells: mouse brain membrane fraction
Conditions in all cases: Table 2, mouse proteome, 30 min preincubation at 37° C.
[1] = target: T1, MAGL (Mus musculus, UniProt O35678); experiment: In vitro competitive activity-based protein profiling (FP-Rh), mouse MAGL
T1 sequence (O35678 1-303): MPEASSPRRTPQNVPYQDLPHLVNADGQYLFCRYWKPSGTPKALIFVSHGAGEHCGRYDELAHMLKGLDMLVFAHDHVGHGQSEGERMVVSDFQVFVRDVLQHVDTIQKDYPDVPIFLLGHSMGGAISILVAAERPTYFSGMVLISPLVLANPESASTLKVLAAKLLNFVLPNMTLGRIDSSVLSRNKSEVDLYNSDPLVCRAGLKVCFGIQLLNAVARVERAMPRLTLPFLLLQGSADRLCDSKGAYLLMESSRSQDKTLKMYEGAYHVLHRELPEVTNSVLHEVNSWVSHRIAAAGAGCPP
Description: (§1) In Vitro Competitive Activity-Based Protein Profiling.
(§2) Proteomes (mouse brain membrane fraction or cell lysates) (50 μL, 1.0 mg/ml total protein concentration) were preincubated with varying concentrations of inhibitors at 37° C. After 30 min, FP-Rh (1.0 μL, 50 μM in DMSO) was added and the mixture was incubated for another 30 min at 37° C. Reactions were quenched with SDS loading buffer (50 μL—4×) and run on SDS-PAGE.

[2] = target: T2, FAAH (Mus musculus, UniProt O08914); experiment: In vitro competitive activity-based protein profiling (FP-Rh), mouse FAAH
T2 sequence (O08914 1-579): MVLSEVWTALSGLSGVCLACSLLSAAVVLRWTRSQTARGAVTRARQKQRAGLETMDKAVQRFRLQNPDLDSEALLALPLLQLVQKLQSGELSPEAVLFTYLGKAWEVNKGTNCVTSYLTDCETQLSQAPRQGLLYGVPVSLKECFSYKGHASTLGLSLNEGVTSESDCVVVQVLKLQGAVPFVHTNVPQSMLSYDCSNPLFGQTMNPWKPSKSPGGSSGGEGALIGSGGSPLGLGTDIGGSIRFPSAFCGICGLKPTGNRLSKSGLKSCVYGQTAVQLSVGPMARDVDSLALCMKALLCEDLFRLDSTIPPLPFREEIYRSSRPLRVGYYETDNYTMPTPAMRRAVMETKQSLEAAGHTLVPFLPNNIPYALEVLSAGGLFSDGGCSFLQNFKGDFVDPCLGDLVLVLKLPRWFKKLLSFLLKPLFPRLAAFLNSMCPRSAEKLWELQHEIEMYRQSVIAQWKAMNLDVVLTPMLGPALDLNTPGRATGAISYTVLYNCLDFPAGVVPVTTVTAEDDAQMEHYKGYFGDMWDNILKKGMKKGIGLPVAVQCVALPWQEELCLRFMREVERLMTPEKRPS
Description: as §1, §2

[3] = target: T3, ABHD6 (Mus musculus, UniProt Q8R2Y0); experiment: In vitro competitive activity-based protein profiling (FP-Rh), mouse ABHD6
T3 sequence (Q8R2Y0 1-336): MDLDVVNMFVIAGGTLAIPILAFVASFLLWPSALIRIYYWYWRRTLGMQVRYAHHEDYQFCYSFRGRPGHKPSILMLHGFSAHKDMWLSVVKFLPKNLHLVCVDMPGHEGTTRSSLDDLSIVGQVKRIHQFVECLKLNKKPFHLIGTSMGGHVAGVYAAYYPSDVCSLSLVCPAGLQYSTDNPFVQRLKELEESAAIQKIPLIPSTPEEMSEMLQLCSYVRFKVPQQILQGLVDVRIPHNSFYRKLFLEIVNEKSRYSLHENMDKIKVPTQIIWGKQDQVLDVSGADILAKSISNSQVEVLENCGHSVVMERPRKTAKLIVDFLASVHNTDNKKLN
Description: as §1, §2

| Structure (SMILES) | IC50 [1] | IC50 [2] | IC50 [3] |
| --- | --- | --- | --- |
| Cc1cc(N2CCCC2)ccc1CN1CCN(C(=O)ON2C(=O)CCC2=O)CC1 [Example 68, 2,5-Dioxopyrrolidin-1-yl 4-(2-methyl-4-(pyrrolidin-1-yl)benzyl)piperazine-1-carboxylate] | 100 to 1000 nM | 1000 to 10000 nM | 100 to 1000 nM |
| O=C(ON1C(=O)CCC1=O)N1CCN(Cc2ccc(Cl)cc2N2CCOCC2)CC1 [Example 69, 2,5-Dioxopyrrolidin-1-yl 4-(4-chloro-2-morpholinobenzyl)piperazine-1-carboxylate] | < 100 nM | 1000 to 10000 nM | 100 to 1000 nM |
| COc1ccc(CN2CCN(C(=O)ON3C(=O)CCC3=O)CC2)cc1 [Example 70, 2,5-Dioxopyrrolidin-1-yl 4-(4-methoxybenzyl)piperazine-1-carboxylate] | 1000 to 10000 nM | 1000 to 10000 nM | 1000 to 10000 nM |
| Cc1ccc(CN2CCN(C(=O)ON3C(=O)CCC3=O)CC2)cc1 [Example 71, 2,5-Dioxopyrrolidin-1-yl 4-(4-methylbenzyl)piperazine-1-carboxylate] | 100 to 1000 nM | 1000 to 10000 nM | 1000 to 10000 nM |
| O=C(ON1C(=O)CCC1=O)N1CCN(Cc2ccc(Cl)cc2N2CCCC2)CC1 [Example 74, 2,5-Dioxopyrrolidin-1-yl 4-(4-chloro-2-(pyrrolidin-1-yl)benzyl)piperazine-1-carboxylate] | < 100 nM | > 10000 nM | 100 to 1000 nM |
| O=C(ON1C(=O)CCC1=O)N1CCN(Cc2cccc(Cl)c2N2CCOCC2)CC1 [Example 82, 2,5-Dioxopyrrolidin-1-yl 4-{[3-chloro-2-(morpholin-4-yl)phenyl]methyl}piperazine-1-carboxylate] | 100 to 1000 nM | > 10000 nM | 1000 to 10000 nM |
| CC(=O)NC1CCN(c2cc(Cl)ccc2CN2CCN(C(=O)ON3C(=O)CCC3=O)CC2)C1 (stereo not drawn) [Example 85, 2,5-Dioxopyrrolidin-1-yl 4-(2-(3-acetamidopyrrolidin-1-yl)-4-chlorobenzyl)piperazine-1-carboxylate] | < 100 nM | > 10000 nM | 1000 to 10000 nM |
| O=C(ON1C(=O)CCC1=O)N1CCN(Cc2ccc(C(F)(F)F)cc2N2CCOCC2)CC1 [Example 91, 2,5-Dioxopyrrolidin-1-yl 4-{[2-(morpholin-4-yl)-4-(trifluoromethyl)phenyl]methyl}piperazine-1-carboxylate] | < 100 nM | > 10000 nM | 100 to 1000 nM |
| O=C(ON1C(=O)CCC1=O)N1CCN(Cc2cc(Cl)ccc2N2CCOCC2)CC1 [Example 92, 2,5-Dioxopyrrolidin-1-yl 4-{[5-chloro-2-(morpholin-4-yl)phenyl]methyl}piperazine-1-carboxylate] | 100 to 1000 nM | > 10000 nM | 1000 to 10000 nM |
| O=C(ON1C(=O)CCC1=O)N1CCN(Cc2cccc(F)c2N2CCOCC2)CC1 [Example 93, 2,5-dioxopyrrolidin-1-yl 4-{[3-fluoro-2-(morpholin-4-yl)phenyl]methyl}piperazine-1-carboxylate] | 100 to 1000 nM | > 10000 nM | > 10000 nM |
| O=C(ON1C(=O)CCC1=O)N1CCN(Cc2ccc(N3CCOCC3)cc2Cl)CC1 [Example 94, 2,5-Dioxopyrrolidin-1-yl 4-(2-chloro-4-morpholinobenzyl)piperazine-1-carboxylate] | 1000 to 10000 nM | > 10000 nM | 1000 to 10000 nM |
| O=C(ON1C(=O)CCC1=O)N1CCN(Cc2ccc(N3CCOCC3)c(Cl)c2)CC1 [Example 101, 2,5-dioxopyrrolidin-1-yl 4-(3-chloro-4-morpholinobenzyl)piperazine-1-carboxylate] | 1000 to 10000 nM | > 10000 nM | 100 to 1000 nM |
| O=C(ON1C(=O)CCC1=O)N1CCN(Cc2ccc(N3CCCC3)cc2OC(F)(F)F)CC1 [Example 104, 2,5-Dioxopyrrolidin-1-yl 4-{[4-(pyrrolidin-1-yl)-2-(trifluoromethoxy)phenyl]methyl}piperazine-1-carboxylate] | 100 to 1000 nM | > 10000 nM | 100 to 1000 nM |
| O=C(ON1C(=O)CCC1=O)N1CCN(Cc2cccc(Cl)c2N2CCCC2)CC1 [Example 106, 2,5-Dioxopyrrolidin-1-yl 4-{[3-chloro-2-(pyrrolidin-1-yl)phenyl]methyl}piperazine-1-carboxylate] | < 100 nM | > 10000 nM | 1000 to 10000 nM |
| O=C(ON1C(=O)CCC1=O)N1CCN(Cc2cccc(F)c2N2CCCC2)CC1 [Example 107, 2,5-Dioxopyrrolidin-1-yl 4-{[3-fluoro-2-(pyrrolidin-1-yl)phenyl]methyl}piperazine-1-carboxylate] | < 100 nM | > 10000 nM | 100 to 1000 nM |

The next lines start with the values.

| IC50 [1] | IC50 [2] | IC50 [3] | Structure (SMILES) |
| --- | --- | --- | --- |
| < 100 nM | 1000 to 10000 nM | 1000 to 10000 nM | O=C(ON1C(=O)CCC1=O)N1CCN(Cc2ccc(Br)cc2N2CCOCC2)CC1 [Example 66, 2,5-Dioxopyrrolidin-1-yl 4-(4-bromo-2-morpholinobenzyl)piperazine-1-carboxylate] |
| 1000 to 10000 nM | 1000 to 10000 nM | 1000 to 10000 nM | COc1cc(N2CCOCC2)ccc1CN1CCN(C(=O)ON2C(=O)CCC2=O)CC1 [Example 67, 2,5-Dioxopyrrolidin-1-yl 4-(2-methoxy-4-morpholinobenzyl)piperazine-1-carboxylate] |
| 100 to 1000 nM | > 10000 nM | 1000 to 10000 nM | O=C(ON1C(=O)CCC1=O)N1CCN(Cc2ccc(N3CCCC3)c(F)c2)CC1 [Example 75, 2,5-Dioxopyrrolidin-1-yl 4-(3-fluoro-4-(pyrrolidin-1-yl)benzyl)piperazine-1-carboxylate] |
| < 100 nM | 1000 to 10000 nM | < 100 nM | O=C(ON1C(=O)CCC1=O)N1CCN(Cc2ccc(N3CCCC3)cc2Cl)CC1 [Example 78, 2,5-Dioxopyrrolidin-1-yl 4-(2-chloro-4-(pyrrolidin-1-yl)benzyl)piperazine-1-carboxylate] |
| 100 to 1000 nM | > 10000 nM | 100 to 1000 nM | O=C(ON1C(=O)CCC1=O)N1CCN(Cc2cccc(N3CCOCC3)c2)CC1 [Example 83, 2,5-Dioxopyrrolidin-1-yl 4-(3-morpholinobenzyl)piperazine-1-carboxylate] |
| 100 to 1000 nM | > 10000 nM | 1000 to 10000 nM | O=C(ON1C(=O)CCC1=O)N1CCN(Cc2ccc(Cl)cc2-n2cccn2)CC1 [Example 84, 2,5-Dioxopyrrolidin-1-yl 4-(4-chloro-2-(1H-pyrazol-1-yl)benzyl)piperazine-1-carboxylate] |
| < 100 nM | > 10000 nM | 100 to 1000 nM | O=C(ON1C(=O)CCC1=O)N1CCN(Cc2ccc(Cl)cc2-n2cc(Cl)cn2)CC1 [Example 95, 2,5-Dioxopyrrolidin-1-yl 4-(4-chloro-2-(4-chloro-1H-pyrazol-1-yl)benzyl)piperazine-1-carboxylate] |
| 1000 to 10000 nM | > 10000 nM | 100 to 1000 nM | O=C(ON1C(=O)CCC1=O)N1CCN(Cc2c(Cl)cccc2N2CCCC2)CC1 [Example 97, 2,5-Dioxopyrrolidin-1-yl 4-{[2-chloro-6-(pyrrolidin-1-yl)phenyl]methyl}piperazine-1-carboxylate] |
| < 100 nM | > 10000 nM | 100 to 1000 nM | O=C(ON1C(=O)CCC1=O)N1CCN(Cc2cc(Cl)ccc2N2CCCC2)CC1 [Example 98, 2,5-Dioxopyrrolidin-1-yl 4-{[5-chloro-2-(pyrrolidin-1-yl)phenyl]methyl}piperazine-1-carboxylate] |
